Experimental data reported in publication PMC8815882, “Screening the pandemic response box identified benzimidazole carbamates, Olorofim and ravuconazole as promising drug candidates for the treatment of eumycetoma” (PLoS Neglected Tropical Diseases, 2022).
Like-named read-outs stand apart in the source and are kept apart here.

How the values were obtained:
M. mycetomatis MM55 = test: IC50 determination, 2-fold dilution series 16 to 0.03125 μM; assay type: cell-based, Madurella mycetomatis; details: Madurella mycetomatis, MM55, Table 3; benzimidazole carbamates; M. mycetomatis; read-out: IC50
[1] = tested on: M. mycetomatis genome strain MM55; test: CLSI M38-A2 based in vitro susceptibility screening (XTT or resazurin), growth at fixed concentration; assay type: cell-based, Madurella mycetomatis; details: Madurella mycetomatis; for Percent fungal survival at 100 µM: read-out: Percentage survival at 100um, 100 uM A (second replicate column)
[2] = replicate A, read-out: Percentage survival at 25um, 25 um A
[3] = replicate B, read-out: Percentage survival at 25um, 25 uM B
[4] = replicate C, read-out: Percentage survival at 25um, 25 uM C
[5] = mean, read-out: Percentage survival at 25um, 25 uM mean
[6] = mean, read-out: Percentage survival at 100um, 100 uM mean
[7] = replicate (first column), read-out: Percentage survival at 100um, 100 uM A
[8] = replicate (second column), read-out: Percentage survival at 100um, 100 uM A
[9] = replicate (third column), read-out: Percentage survival at 100um, 100 uM A
[10] = mean of replicates, MM55, read-out: Percentage survival at 25um, 25 uM mean
[11] = replicate A, MM55, read-out: Percentage survival at 25um, 25 um A
[12] = replicate B, MM55, read-out: Percentage survival at 25um, 25 uM B
[13] = replicate C, MM55, read-out: Percentage survival at 25um, 25 uM C
[14] = mean of replicates, MM55, read-out: Percentage survival at 100um, 100 uM mean
[15] = replicate 1, MM55, read-out: Percentage survival at 100um, 100 uM A
[16] = replicate 2, MM55, read-out: Percentage survival at 100um, 100 uM A
[17] = replicate 3, MM55, read-out: Percentage survival at 100um, 100 uM A

| Compound | activity at 25 µM [1, 2] | activity at 25 µM [1, 3] | activity at 25 µM [1, 4] | activity at 25 µM [1, 5] | activity at 100 µM [1, 6] | activity at 100 µM [1, 7] | activity at 100 µM [1, 8] | activity at 100 µM [1, 9] | further results |
| --- | --- | --- | --- | --- | --- | --- | --- | --- | --- |
| CCCOc1ccc2nc(NC(=O)OC)[nH]c2c1 [MMV002163, Oxibendazole, reference compound] | – | – | – | – | – | – | – | – | IC50 (M. mycetomatis MM55): 69.1 µM |
| CCCCOC(=O)Nc1cc2nc(C3CCCCC3)[nH]c2cc1N1CCCC1 [MMV687730] | – | – | – | – | – | – | – | – | IC50 (M. mycetomatis MM55): 11.6 µM |
| C[C@H](c1cccc2ccccc12)N(C)Cc1ccccc1 [MMV1782221] | – | – | – | – | – | – | – | – | activity at 25 µM ([1]; mean of three, M. mycetomatis MM55, read-out: Percentage survival at 25um, 25 uM mean): 60.5%; activity at 25 µM ([1]; replicate A, M. mycetomatis MM55, read-out: Percentage survival at 25um, 25 um A): 78.4%; activity at 25 µM ([1]; replicate B, M. mycetomatis MM55, read-out: Percentage survival at 25um, 25 uM B): 99.2%; activity at 25 µM ([1]; replicate C, M. mycetomatis MM55, read-out: Percentage survival at 25um, 25 uM C): 3.87%; activity at 100 µM ([1]; mean of three, M. mycetomatis MM55, read-out: Percentage survival at 100um, 100 uM mean): 78.8%; activity at 100 µM ([1]; replicate 1, M. mycetomatis MM55, read-out: Percentage survival at 100um, 100 uM A (first replicate column)): 56%; Percent fungal survival at 100 µM ([1]; replicate 2, M. mycetomatis MM55): 63.1%; activity at 100 µM ([1]; replicate 3, M. mycetomatis MM55, read-out: Percentage survival at 100um, 100 uM A (third replicate column)): 117% |
| CN1c2ccc(Cl)cc2N(c2ccccc2)C(=O)c2cn(Cc3ccc(CN4CCOCC4)cc3)nc21 [MMV1782222] | 58.9% | 64.9% | 59.6% | – | – | – | – | – | activity at 25 µM ([1]; mean of replicates, read-out: Percentage survival at 25um, 25 uM mean): 61.1%; activity at 100 µM ([1]; mean of replicates, read-out: Percentage survival at 100um, 100 uM mean): 60.2%; activity at 100 µM ([1]; replicate 1, read-out: Percentage survival at 100um, 100 uM A (first replicate column)): 52.1%; Percent fungal survival at 100 µM ([1]; replicate 2): 70.5%; activity at 100 µM ([1]; replicate 3, read-out: Percentage survival at 100um, 100 uM A (third replicate column)): 58.2% |
| CN(C)c1[nH]c(=O)ncc1F [MMV1782223] | 97% | 101% | 80.9% | 93% | 82.8% | 84% | 75.3% | 88.9% | – |
| O=C(Nc1[nH]c(=O)ncc1F)c1ccccc1 [MMV1782225] | 82.4% | 77.6% | 77.1% | 79% | 83.6% | 74.1% | 79.1% | 97.6% | – |
| OB1OCc2c1ccc(Cl)c2F [MMV1782226] | 54.6% | 46.9% | 63.1% | 54.9% | 64.2% | 55.3% | 77.4% | 59.8% | – |
| O=C(NNC(=S)Nc1ccc(Cl)cc1)c1ccncc1 [MMV1782227] | 105% | 86.1% | 67% | 85.9% | 121% | 128% | 90.7% | 144% | – |
| Cc1cc(CCOc2c(C)cc(-c3nnn(C)n3)cc2C)on1 [MMV1782349] | – | – | – | – | – | – | – | – | activity at 25 µM [1, 10]: 75.6%; activity at 25 µM [1, 11]: 84.4%; activity at 25 µM [1, 12]: 90%; activity at 25 µM [1, 13]: 52.4%; activity at 100 µM [1, 14]: 52.1%; activity at 100 µM [1, 15]: 44.9%; activity at 100 µM [1, 16]: 65%; activity at 100 µM [1, 17]: 46.2% |
| CC(C)Oc1ccc(-n2cnc3cc(/C=C\c4ccc(C(C)(C)O)cc4)ccc32)cc1 [MMV1782350] | – | – | – | – | – | – | – | – | activity at 25 µM [1, 10]: 60.8%; activity at 25 µM [1, 11]: 60%; activity at 25 µM [1, 12]: 63%; activity at 25 µM [1, 13]: 59.5%; activity at 100 µM [1, 14]: 55.5%; activity at 100 µM [1, 15]: 57.8%; activity at 100 µM [1, 16]: 56.4%; activity at 100 µM [1, 17]: 52.3% |
